Experimental data taken from US20240299595A1, “CANCER THERANOSTIC COMPOSITIONS COMPRISING BIGUANIDE COMPLEXES OF GROUP 7 TRANSITION METALS AND USES THEREOF” (BOARD OF REGENTS, THE UNIVERSITY OF TEXAS SYSTEM, priority 2021, published 2024).
“Also recorded” adds a separate entry of the source.

Assays:
Kras* = assay: MTT cytotoxicity, pancreatic cancer cell line Kras*; format: cell-based, murine; conditions: 72 h
Procedure: (§1) To determine cytotoxicity of Re-Phen and Phenformin, different cell lines were exposed to different concentrations of the compounds and their viabilities were followed over time. Pancreatic cells were seeded in 96-well plates (5000 cells/well) overnight, and treated with Re-Phen (FIG. 13A) or phenformin (FIG. 13B) in concentrations ranging from 4.57×10−4 mM to 1.0 mM at 37° C. for 72 h. Cell viability was measured using the MTT assay. The absorption at 590 nm was measured with a microplate reader (SpectraMax, Molecular Device, San Diego, CA) to quantify cell numbers. The proportion of cells was normalized to that of untreated cells and expressed as mean±standard error of the mean (SEM) (n=6). The half-maximal inhibitory concentration (IC50) values were calculated by a sigmoidal dose-response (variable slope) curve-fitting using GraphPad Prism software.

MiaPaca-2 PDAC cells = assay: MTT cytotoxicity, pancreatic cancer cell line MiaPaca-2; format: cell-based; conditions: for IC50: MTT, 72 h
Procedure: as §1, with “Pancreatic cells were seeded in 96-well plates (5000 cells/well) overnight, and treated with Re-Phen (FIG. 13A) or phenformin (FIG. 13B) in concentrations ranging from 4.57×10−4 mM to 1.0 mM at 37° C. for 72 h.” left out

IRGOV-1 = assay: MTT cytotoxicity, ovarian cancer cell line IRGOV-1; format: cell-based; conditions: 72 hours
Procedure: (§2) Finally, a comparison study of the cytotoxicity of Re-Phen and phenformin in a panel of ovarian cancer cell lines by MTT assay after a 72 hour incubation period was conducted. Ovarian cells were seeded at 5000 cells/well in 96-well plates overnight, and treated with Re-Phen or phenformin in different concentrations (from 4.57×10^−4 mM to 1.0 mM in 3-fold increase) at 37° C. for 72 hours. Cell viability was measured using the MTT assay. The absorption at 590 nm was measured at microplate reader (SpectraMax, Molecular Device, San Diego, CA) to quantify cell numbers. The proportion of cells was normalized to that of untreated cells and expressed as mean±standard error of the mean (SEM) (n=5-6). The resulting reduced viability with half-maximal inhibitory concentration (IC50) values of mM were calculated by a sigmoidal dose-response (variable slope) curve-fitting using GraphPad Prism software. The data are shown in FIG. 19A (Re-Phen) and FIG. 19B (phenformin). […] In fact, Re-Phen is shown to display >2,000-fold and >5,000-fold higher cytotoxicity against OVACAR-8 and SKOV3 (Table 2) human ovarian cancer cell lines, respectively.

OVCAR4 = assay: MTT cytotoxicity, ovarian cancer cell line OVCAR4; format: cell-based
Procedure: as §2

HeyA8 = assay: MTT cytotoxicity, ovarian cancer cell line HeyA8; format: cell-based
Procedure: as §2

AMPK = AMPK and AMPK phosphoprotein western blotting; format: cell-based; conditions: 24 hours
Procedure: R-actin was used as a loading control. Cells were treated with phenformin or Re-Phenformin overnight at the indicated concentrations for 24 hours.
AMPK is a key enzyme that becomes activated under nutrient stress. Annexin V/PI double staining kit was used to detected cell death in flow cytofluorimetric analyses. […] In Kras* cell line, cells died largely of necrosis; in MiaPaca-2 cell line, cells died mostly of apoptosis.

PDAC cells = assay: JC-10 mitochondrial membrane potential assay; format: cell-based; conditions: JC-10 microplate assay kit
Procedure: The fluorescent intensities for J-aggregates (Ex/Em=540/590 nm) and monomeric forms (Ex/Em=490/525 nm) of JC-10 were measured with a microplate reader. Fluorescence intensity ratio measured at 525 nm/590 nm represents the change of mitochondrial membrane potential. Data are presented as mean±SD (n=4). *p<0.05; **p<0.01; ***p<0.001.
Both Re-Phen and phenformin altered the mitochondrial functions and metabolic state of PDAC cells. The fluorescent intensities for both monomeric forms (Ex/Em=490/525 nm) and J-aggregates (Ex/Em=540/590 nm) of JC-10 change upon mitochondrial membrane polarization. Thus, an increase in the ratio of fluorescence intensities measured at 525 nm (monomeric form) over 590 nm (aggregates) represents a decrease in mitochondrial membrane potential.

[1] = test system: MiaPaca-2 and Kras* cells; assay: NADH-to-total NAD (NADt) ratio, colorimetric kit; format: cell-based; conditions: 100 μM, 3 hours or 12 hours
Procedure: Data are presented as mean±SD (n=3). *p<0.05; ***p<0.001. Vehicle (DMSO) treated cells were as controls.
Following, PDAC cells were used to measure NADH-to-total NAD (NADt) ratios. NADH-to-total NAD (NADt) ratios were measured using a colorimetric kit (Biovision, Milpitas, CA). Briefly, cells were treated for different time periods as indicated and total NAD (NADt, NAD+NADH) was extracted following manufacturer provided protocol. For each of the extracted samples, half of the sample was heated at 60° C. for 30 minutes to decompose NAD+ while keeping NADH intact. Total NAD+ and NADH level was measured without the heating steps and in the presence of NAD cycling enzyme. The ratio of NADH to NADt were calculated on absorbance measured at 450 nm with a microplate reader (SpectraMax, Molecular Device, San Diego, CA). Cells treated with the same amount of DMSO used to prepare 100 μM phenformin or Re-Phen were used as controls.

MiaPaca-2 cells = assay: Untargeted IC-MS metabolomics; format: cell-based
Procedure: Samples were measured by untargeted IC-MS after 12 hours of treatment (n=3).
Metabolites were extracted from lysed cells and samples were measured by untargeted IC-MS (n=3). Data are expressed as mean±SD (n=3). *p<0.05 compared to phenformin.
Following, untargeted IC-MS was used to analyze changes in cellular metabolites.

| Compound | IC50 (Kras*; Mus musculus, Pancreatic cancer cell) [µM] | IC50 (MiaPaca-2 PDAC cells; Homo sapiens, MIA PaCa-2) [µM] | IC50 (IRGOV-1) [µM] | IC50 (OVCAR4; Homo sapiens, OVCAR-4, 72 hours) [µM] | IC50 (HeyA8; HEY A8, 72 hours) [µM] | AMPK activation (AMPK) | mitochondrial membrane potential (PDAC cells) | ratio of NADH to total NADt [1] | pyrimidine nucleotide pool (MiaPaca-2 cells) | TCA cycle: level of succinate and aspartate versus vehicle (MiaPaca-2 cells; 12 h) | IC50 (Kras*) [µM] | IC50 (MiaPaca-2 PDAC cells) [µM] | fold higher cytotoxicity against MiaPaca-2 PDAC cells (MiaPaca-2 PDAC cells; Re-Phen versus phenformin, Table 1) | IC50 (OVCAR4; 72 hours) [µM] | IC50 (HeyA8; 72 hours) [µM] | purine nucleotide pool compared to phenformin (MiaPaca-2 cells) | level of 3-phosphoglycerate (3-PG) (MiaPaca-2 cells; 100 μM, 12 h) | level of phosphoenolpyruvate (PEP) (MiaPaca-2 cells; 100 μM, 12 h) | level of glutathione (GSH) (MiaPaca-2 cells; 200 μM, 12 hours) |
| --- | --- | --- | --- | --- | --- | --- | --- | --- | --- | --- | --- | --- | --- | --- | --- | --- | --- | --- | --- |
| [H]/N=C(/N)N/C(=N/[H])NCCc1ccccc1 [Phenformin, N-phenylethyl biguanide, reference compound] | 750 | 13600 | 380 | 2430 | 22 | activated AMPK | reduced mitochondrial membrane potential | increased the ratio of NADH to total NADt; also recorded: significantly increased NADH/NADt ratio | decreased pyrimidine nucleotide pool | reduced level of succinate and aspartate |  |  |  |  |  |  |  |  |  |
| N=C(N)NC(=N)NCCc1ccccc1.[C-]#[O+].[C-]#[O+].[C-]#[O+].[Re+] [Re-Phen] |  |  | 420 |  |  | activated AMPK | reduced mitochondrial membrane potential | increased the ratio of NADH to total NADt; also recorded: significantly increased NADH/NADt ratio | decreased pyrimidine nucleotide pool | reduced level of succinate and aspartate | 230 | 39 | about 35 fold | 390 | 82 | increased purine nucleotide pool | increased the level of 3-phosphoglycerate (3-PG) more than phenformin did | suppressed the level of phosphoenolpyruvate (PEP) | increased the level of glutathione (GSH) |
